# Tests used:
# [1] = test system: Cooperia onocophora and Nematodirus; conditions: against Cooperia onocophora and Nematodirus; cited from earlier work
# [2] = Carr Index (compressibility/flowability) of unmilled polymorphic forms; format: physicochemical
# Description: After crystallization and before micronization, the Carr Index of B form is lower than 10 (in %). The Can Index CI is defined as [formula] where P is the packed bulk density (g cm^−3), L is the loose bulk density (g cm 3). CI is also known as a compressibility index. A low figure for Cl corresponds to a high degree of flowability. The Carr Index way be calculated from Mercury Intrusion Porosimetry or measured by Tap-Tap.
# [3] = Thermodynamic stability of polymorphic forms (DSC, Burger's rule); format: physicochemical; conditions: monotropic system
# Description: When heated, form A transforms to form B depending on the heating rate.
# Therefore, the transition A→B is under kinetic control as usual in case of polymorphism. The transition from A to B may also be followed by XRay under heating (FIG. 12).
Compound,ivermectin plasma level required for efficacy [1],Carr Index ([2]; after crystallization and before micronization),flow characteristics ([2]; compared with Polymorph A),thermodynamic stability of polymorphic form [3],thermodynamic stability of polymorphic form ([3]; listed as B form)
"22,23-dihydro avermectin Bla/Blb [ivermectin]",3 to 4 ng/mL,,,,
"CC1(C)OC(=O)C(OCC2CC2)=C1c1ccc(S(C)(=O)=O)cc1 [Polymorph B, 3-(cyclopropylmethoxy)-4-[4-(methylsulfonyl)phenyl]-5,5-dimethyl-5H-furan-2-one]",,lower than 10%,better flow characteristics than Polymorph A,thermodynamically more stable than Polymorph A,the most stable form

# Reference: patent US6787342B2, “Paste formulations” (Merial Limited, priority 2000, dated 2004)
